Laboratory results: PubChem BioAssay AID179 (DTP/NCI, 2004)
Activity calls are given as the source filed them.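 Rule for the calls: active = compounds giving half or more protection of infected cells from virus-caused growth loss, again on retest; inactive = the rest.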

Tested on: CEM cells HIV-1 protection, formazan growth assay
Experiment: NCI AIDS Antiviral Assay
Details: for IC50: measured here: growth of uninfected CEM cells
In short: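 Steps: treat uninfected and HIV-1-infected human CEM cells at five drug levels; quantify growth by soluble formazan; retest any compound reaching 50% protection; classify actives from the retest.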

SMILES | EC50 [µM] | IC50 [µM] | outcome
O=C(Nc1ccc(S(=O)(=O)Nc2ccc(N=Nc3ccccc3)cc2)cc1)C(SC1=NC=NC2=NC=NC21)SC1=NC=NC2=NC=NC21 (configuration not stated) | > 20 | 3.16 | –
CCCCCCCCC1=C(OC)C(=O)c2cccnc2C1=O | – | – | inactive
CN1CCC2CCCCN2CC1=O (configuration not stated) | > 1150 | > 1150 | –
CCCCN(CCCC)CCCCNc1c(C)cnc2cc(Cl)ccc12 | > 26.9 | 9.33 | –
CN(C)C=NCC(O)c1ccccc1 (configuration not stated) | > 200 | > 200 | –
O=C(Nc1cc(Cl)c(Cl)cc1NC(=O)C(Cl)(Cl)Cl)C(Cl)(Cl)Cl | > 200 | 0.417 | –
CC12C=C[C@]3(CC[C@@H]4[C@@](C)(CO)CCC[C@]4(C)C3CC1)C2 (some centres not stated) | – | – | inactive
CN1C(=O)NC(C=O)(CCc2ccccc2)C1=O (configuration not stated) | – | – | inactive
COC(=O)C(C(=O)C(=O)Nc1ccc(Br)cc1)c1nc2ccc(Cl)cc2[nH]c1=O (configuration not stated) | > 75.9 | 4.07 | –
C/C(=N\NC(=O)N/N=C(\C)c1ccccn1)c1ccccn1 | > 2 | 0.0339 | –
CC1=C(C/C=C/c2ccccc2)C(=O)c2ccccc2C1=O | – | – | inactive
CC12CC3CC(C1)CC(N=[N+]=[N-])(C3)C2 | > 70.8 | > 70.8 | –
NC(=O)c1ccc2c(c1)S(=O)(=O)c1ccccc1C2=O | > 200 | > 200 | –
COc1cc2c(C)cc(=O)oc2cc1O | > 457 | 148 | –
CCOP(=O)(OCC)OC1c2[nH]cc(C(=O)OCc3ccccc3)c2-c2cc(C(=O)OC)[nH]c2C1OC (configuration not stated) | > 200 | 16.6 | –
O=C(Oc1c(Br)cc(Br)cc1C(=O)Oc1ccccc1)C(=O)Oc1c(Br)cc(Br)cc1C(=O)Oc1ccccc1 | > 200 | 30.9 | –
O=CC1=CN2C(c3ccoc3)CCC(CO)C2CC1 (configuration not stated) | – | – | inactive
CN(C)COC(=S)SSSC(=S)OCN(C)C | 0.195 | 0.724 | –
C=C1C(=O)OC(CCCCCCCCCCCCC)C1C(=O)O (configuration not stated) | > 3.24 | > 3.24 | –
CCN(CC)CCNC(=O)c1ccc(I)cc1 | > 200 | > 200 | –
Nc1nc(=S)[nH]c(C(=O)Nc2ccc(Cl)c(Cl)c2)c1-c1ccc(Cl)cc1 | > 43.7 | > 43.7 | –
O=c1[nH]c2ccccc2c(=O)n1/N=C\c1ccccc1O | > 200 | > 200 | –

SMILES | EC50 [µM] | IC50 [µM] | outcome
C#Cc1c(C)c(/C=C/C(C)=C/C(=O)OC)n(C)c1C | – | – | inactive
c1ccc(C2=NOC3C4CCC(C4)C23)cc1 (configuration not stated) | – | – | inactive
CCCCCCCCCCCCCCCCOCC(Cl)CP(=O)(O)OP(=O)(O)OCC1OC(n2cnc3c(N)ncnc32)C(O)C1O (configuration not stated) | > 100 | > 100 | –
CCC(=N\NC(N)=S)/C(C)=N/O | > 200 | > 200 | –
CCOC(=O)Cc1nc2c(N)ncnc2n1C1OC(COC(C)=O)C(OC(C)=O)C1OC(C)=O (configuration not stated) | > 200 | > 200 | –
OCC1(CNc2cc(Cl)ncn2)CCC1 | > 200 | > 200 | –
CC(=O)c1cccc(NCn2nnc3ccccc32)c1 | > 200 | 95.5 | –
COC(=O)CNC(=O)CNC(=O)CSc1nnc(COc2ccc(Cl)cc2)n1-c1ccccc1 | > 200 | 30.9 | –
CCc1ccccc1NC(=O)CC1NC(=O)CS1 (configuration not stated) | > 339 | 214 | –
[N-]=[N+]=Nc1nnc(CCCCc2nnc(N=[N+]=[N-])o2)o1 | > 468 | 138 | –
Nc1ncnc2c1sc(=S)n2-c1ccccc1 | > 52.5 | > 52.5 | –
COc1ncnc2c1ncn2C1OC(CO)(C(F)(F)F)C(O)C1O (configuration not stated) | > 200 | > 200 | –
Cc1ccccc1[B-]12OCC[N+]1(CNC(=O)C1=C(O)C3(O)C(=O)C4=C(O)c5c(O)cccc5C(C)(O)C4CC3C(N(C)C)C1=O)CCO2 (configuration not stated) | > 53.7 | > 53.7 | –
COc1cccc2c1C(CO)N1C(C#N)C3CC(C(=O)O)C(C1C2)N3C (configuration not stated) | > 0.355 | 0.0372 | –
CCOc1ccc(/C=C2/NC(=S)N(CN3CCCCC3)C2=O)cc1 | > 200 | 72.4 | –
CCC1OC(=O)C(C)C(OC2CC(C)(O)C(O)C(C)O2)C(C)C(O)C(C)(O)CC(C)C(=O)C(C)C(O)C1C (configuration not stated) | > 229 | 21.4 | –
N#C/C=C\c1ccc(-c2cc(C(F)(F)F)cc(C(F)(F)F)c2)o1 | > 200 | 46.8 | –
CC(=O)OC12CCCCC1C1(CCCC1)NC2=O (configuration not stated) | – | – | inactive
N#Cc1nc(-c2cccc(-c3nc(C#N)c(N)o3)n2)oc1N | – | – | inactive
CC(C)(C)c1ccc(O)c(C(O)c2ccncc2)c1 (configuration not stated) | > 200 | 79.4 | –
NCCCS(=O)(=O)O | > 200 | > 200 | –
COc1cccc2c1C(=O)c1c(O)c3c(c(O)c1C2=O)C[C@@](O)(C(=O)CO)C[C@@H]3OC1CC(N2CCOCC2C#N)C(O)C(C)O1 (some centres not stated) | > 15.5 | 0.00501 | –

SMILES | EC50 [µM] | IC50 [µM] | outcome
COc1ccc(/C=C/c2ccc3ccccc3[n+]2C)cc1OC | 0.0631 | 52.5 | –
Cc1oc(N)c(C#N)c1C | – | – | inactive
CC1(C)CC(N2CCN(C3CC(C)(C)NC(C)(C)C3)CC2)CC(C)(C)N1 | > 339 | > 339 | –
CC[C@@]1(OC(=O)C(N)CCCCN)C(=O)OCc2c1cc1n(c2=O)Cc2cc3ccccc3nc2-1 (some centres not stated) | > 10 | 0.0112 | –
C1N2CN3CN1CN(C2)C3 | > 200 | 151 | –
CC(=O)C(=O)N1Cc2cc3ccccc3nc2C1 | > 708 | 257 | –
O=C1Nc2nccnc2C(=O)N2CCC[C@@H]12 | > 200 | > 200 | –
Nc1c(-c2ccccc2)c2ccc([N+](=O)[O-])cc2c(=O)n1-c1cccc(C(=O)O)c1 | > 200 | 135 | –
CC12O[C@H](c3ccccc3)[C@H](c3ccccc3)N1C(=O)C1(C(=O)OCc3ccccc3)CC12 (some centres not stated) | > 22.9 | > 22.9 | –
COC(=O)/C(=C(/C)c1ccco1)P(=O)(OC)OC | > 200 | > 200 | –
C[C@H](CCC1=NCCN1)[C@H]1CC[C@H]2[C@@H]3[C@H](O)C[C@@H]4C[C@H](O)CC[C@]4(C)[C@H]3CC[C@]12C | > 200 | 24 | –
Nn1c(SSSSc2nnc(-c3ccccc3)n2N)nnc1-c1ccccc1 | > 200 | > 200 | –
Cc1c(Cc2ccc(Cl)cc2)c(=O)[nH]c(=O)n1C | > 97.7 | > 97.7 | –
CC1CC(=O)Nc2ccc(N=NN(C)C)cc2N1C=O (configuration not stated) | > 200 | > 200 | –
CC1(C)CC2(C)OC(=N)C1(C#N)C2(C#N)C#N (configuration not stated) | > 200 | 2.34 | –
CN(C)c1ccc(/C=C(\NC(=O)c2ccccc2)c2nc3ccc4c(c3[nH]2)C(=O)c2ccccc2C4=O)cc1 | – | – | inactive
O=S(=O)(F)c1cc(C[P+](c2ccccc2)(c2ccccc2)c2ccccc2)ccc1Cl | > 200 | 91.2 | –
CC(=O)c1ccc(Br)cc1NC1=CC(=O)c2ncccc2C1=O | > 200 | 4.68 | –
COC(=O)C([O][Ge]([CH3])([CH3])[CH3])c1ccccc1 (configuration not stated) | > 251 | > 251 | –
O=[N+]([O-])c1ccc2c(c1)Sc1ccccc1N2CCCCCl | > 200 | 19.1 | –
O=C(O)/C=C/c1c2ccc(=O)cc-2oc2cc(O)ccc12 | > 200 | 28.8 | –
CC(C)COP(C)(=O)C(N)(C(F)(F)F)C(F)(F)F (configuration not stated) | > 200 | > 200 | –

SMILES | EC50 [µM] | IC50 [µM] | outcome
COc1ccc(C(c2c(O)c3ccccc3n(C)c2=O)c2c(O)c3ccccc3n(C)c2=O)cc1 | > 8.13 | > 8.13 | –
O=C(O)\C=C/C=C/C=C/C=C/C(=O)O | 126 | 135 | –
N#CC(NNC(=O)c1ccccc1O)c1ccccc1 (configuration not stated) | > 9.33 | 0.339 | –
CCN(CC)C(=S)SSC(=S)N(CC)CC | > 200 | 44.7 | –
CC(=O)OCC1OC(n2c(C)c(C)cc(C#N)c2=S)C(OC(C)=O)C(OC(C)=O)C1OC(C)=O (configuration not stated) | > 200 | > 200 | –
O=C(O)C1C2c3ccccc3C(O)C1(C(=O)O)c1ccccc12 (configuration not stated) | > 407 | > 407 | –
O=C1Nc2ccccc2C12OCCS2 (configuration not stated) | – | – | inactive
COc1cc2c(cc1O)[C@@H]1Cc3c(cc(OC)c(OC)c3Oc3cc4c(cc3OC)CCN(C)[C@@H]4Cc3ccc(O)cc3)[C@H](C2)N1C | > 200 | 15.5 | –
O=C1OC(C(O)CO)C(O)=C1O (configuration not stated) | – | – | inactive
COP(=O)(OC)C(Cc1cn(C(C)=O)c2ccccc12)C(=O)O (configuration not stated) | > 200 | > 200 | –
COc1cccc(/C=N/[N-]C(=O)c2ccncc2)c1[O-].[Co+2].[OH3+] | > 20.9 | > 20.9 | –
Cc1ccc(C(=O)Cc2nc3c([nH]c2=O)c(C)nn3-c2ccccc2)c(C)c1 | > 200 | > 200 | –
COc1ccc2nc3ccccc3c(NCCCCCCN(CCCl)CCCl)c2c1 | > 0.2 | 0.162 | –
Nc1c(N2CCCCC2)c(=O)nc2[nH]/c(=C\c3ccccc3)c(=O)n12 | > 200 | 95.5 | –
COc1ccc2nc3cc(Cl)ccc3c(NCCNCCCNC(=O)c3cc(-c4ccccc4)nc4ccccc34)c2c1 | > 20 | 1.12 | –
O=c1c(OS(=O)(=O)O)c(-c2ccc(OS(=O)(=O)O)c(OS(=O)(=O)O)c2)oc2cc(OS(=O)(=O)O)cc(OS(=O)(=O)O)c12 | > 100 | 51.3 | –
OCC1=CCN2C[C@@H](O)[C@@H](O)[C@@H]12 | > 200 | > 200 | –
C[C@H]1[C@@H](c2ccccc2)C12C(=O)NC(=O)NC2=O | > 200 | 105 | –
O=c1oc2ccccc2c(O)c1C(c1ccc(C(c2c(O)c3ccccc3oc2=O)c2c(O)c3ccccc3oc2=O)cc1)c1c(O)c2ccccc2oc1=O | > 200 | 50.1 | –
O=c1c(-c2ccc3c(c2)OCO3)coc2c3c(ccc12)OCO3 | – | – | inactive
CCOC(=O)C(CC[C@H]1c2[nH]c3ccccc3c2C[C@@H](C#N)N1C(=O)C(F)(F)F)C(=O)OCC | > 20.9 | > 20.9 | –
CCC(=O)NCC1CCCN2CCCCC12 (configuration not stated) | > 200 | > 200 | –
